Laboratory results reported in paper PMC7248880, “Preclinical Incorporation Dosimetry of [^18F]FACH—A Novel ^18F-Labeled MCT1/MCT4 Lactate Transporter Inhibitor for Imaging Cancer Metabolism with PET” (Molecules, 2020).

Assay: Preclinical incorporation dosimetry: whole-body PET/CT in piglets, scaled to human, OLINDA 2.1, ICRP103
Type: in vivo, juvenile pigs
Procedure: Three piglets (age: ~6 weeks, weight: ~13–15 kg) were fasted on the day of imaging and received an intranuscular. injection of 1 mL azaperone and 4 mL ketamine to introduce anesthesia. […] During narcosis, the animals maintained spontaneous respiration and no mandatory ventilation was applied. The subjects were sequentially imaged after an iv injection (contralateral ear vein) of 156 ± 54 MBq [^18F]FACH (0.63 ± 0.49 µg) in a PET/CT system (Biograph16, SIEMENS, Erlangen, Germany). The piglets were positioned prone with legs alongside the body on a custom-made plastic trough including a piglet head-holder (Figure 5). The PET acquisition was divided into a sequential (4 × 9 min, 3 × 12 min) and a static part (1 × 24 min, 1 × 30 min, 1 × 36 min), each of which was preceded by a low-dose CT to acquire structural data for attenuation correction (AC) and anatomical orientation (Figure 6). Post mortem, the urine was collected by bladder punctuation, weighted, and divided into three 1 mL samples for activity measurements in a gamma-counter (Packard Cobra II 5003 Auto Gamma Counting System, GMI, Ramsey, MN, USA).
PET data reconstruction was done using low-dose CT attenuation correction (AC) and an iterative OSEM algorithm with 4 iterations and 8 subsets. As the PET/CT system is in daily clinical use, it is periodically subjected to detector normalization and activity calibration. Furthermore, all peripheral activity-measuring devices to be used for the investigation (dose calibrator, gamma counter) are cross-calibrated in terms of timing and a radioactivity adjustment.
The image data were analyzed with ROVER (ABX, Radeberg, Germany; v. 3.0.46h). The organs were identified and manually delineated using 3D volumes of interest (VOI). The CT data were used for anatomical orientation and for image registration with the PET data. Relevant source organs like brain, gall bladder, large intestine, small intestine, stomach, heart, kidneys, liver, lungs, pancreas, red marrow (backbone, pelvis, sternum), spleen, thyroid, testes, skeleton (bone), and the urinary bladder were delineated and the time–activity data transformed into percentage of injected dose (%IDorgan) with Equation (2). (2) %IDorgant=Aorgant×cscant/A0t [%] where Aorgant is the activity in the organ at the time t; cscant is a calibration factor representing the theoretical body activity (derived from a whole body mask of a volume that equals the body dimentions of the animal) decay corrected to t and divided by the imaged body activity in each image frame at the time t, and A0t is the injected activity decay corrected to t0.
The dose calculation has been described by our group in detail before. Briefly, due to differences in weight, size, and metabolic rates between the animal species and the human volunteers, it is necessary to map the preclinical extracted biodistribution data to human circumstances. Thus, the animal biokinetic data (time scale and %ID values) were adapted to the human circumstances according to [22] to fit the human weight, size, and metabolic rates (Equations (3) and (4)). (3) thuman=tanimal[mhuman/manimal]^0.25 (4) [%ID]/organhuman=[%ID]/ganimal×mTBanimal[g]/mTBhuman[g]×morganhuman[g]
The TIACs were estimated by exponential fitting and the dosimetry estimation was performed using OLINDA/EXM software (v. 2.1). Finally, organ doses (OD) were estimated and multiplied by tissue weighting factors as published in ICRP103 [20].

For `CCCN(CCC[18F])c1ccc(/C=C(\C#N)C(=O)O)c(OC)c1` [[^18F]FACH, (E)-2-cyano-3-{4-[(3-[^18F]fluoropropyl)(propyl)amino]-2-methoxyphenyl}acrylic acid], the Effective dose (FACHpig1) was 1.25E-02 mSv/MBq, the “Effective dose contribution HT wT, Adrenals” value (FACHpig1) was 1.26E-04 mSv/MBq and the “Effective dose contribution HT wT, Brain” value (FACHpig1) was 5.61E-05 mSv/MBq. The “Effective dose contribution HT wT, Esophagus” value (FACHpig1) was 4.16E-04 mSv/MBq, the “Effective dose contribution HT wT, Eyes” value (FACHpig1) was 0.00E+00 mSv/MBq and the “Effective dose contribution HT wT, Gallbladder Wall” value (FACHpig1) was 1.12E-04 mSv/MBq. For the same compound, the “Effective dose contribution HT wT, Heart Wall” value (FACHpig1) was 9.47E-05 mSv/MBq, the “Effective dose contribution HT wT, Kidneys” value (FACHpig1) was 2.47E-04 mSv/MBq and the “Effective dose contribution HT wT, Left colon” value (FACHpig1) was 7.77E-04 mSv/MBq. For the same compound, the “Effective dose contribution HT wT, Liver” value (FACHpig1) was 3.22E-04 mSv/MBq, the “Effective dose contribution HT wT, Lungs” value (FACHpig1) was 9.67E-04 mSv/MBq and the “Effective dose contribution HT wT, Osteogenic Cells” value (FACHpig1) was 2.00E-04 mSv/MBq. The “Effective dose contribution HT wT, Pancreas” value (FACHpig1) was 5.61E-04 mSv/MBq, the “Effective dose contribution HT wT, Prostate” value (FACHpig1) was 7.36E-05 mSv/MBq and the “Effective dose contribution HT wT, Rectum” value (FACHpig1) was 3.44E-04 mSv/MBq. The “Effective dose contribution HT wT, Red Marrow” value (FACHpig1) was 1.58E-03 mSv/MBq, the “Effective dose contribution HT wT, Right colon” value (FACHpig1) was 9.34E-04 mSv/MBq and the “Effective dose contribution HT wT, Salivary Glands” value (FACHpig1) was 1.03E-04 mSv/MBq. The “Effective dose contribution HT wT, Small Intestine” value (FACHpig1) was 1.74E-04 mSv/MBq, the “Effective dose contribution HT wT, Spleen” value (FACHpig1) was 9.48E-05 mSv/MBq and the “Effective dose contribution HT wT, Stomach Wall” value (FACHpig1) was 1.71E-03 mSv/MBq. The “Effective dose contribution HT wT, Testes” value (FACHpig1) was 4.40E-04 mSv/MBq, the “Effective dose contribution HT wT, Thymus” value (FACHpig1) was 9.49E-05 mSv/MBq and the “Effective dose contribution HT wT, Thyroid” value (FACHpig1) was 3.21E-04 mSv/MBq. The “Effective dose contribution HT wT, Total Body” value (FACHpig1) was 0.00E+00 mSv/MBq, the “Effective dose contribution HT wT, Urinary Bladder Wall” value (FACHpig1) was 2.74E-03 mSv/MBq and the “Organ equivalent dose HT, Adrenals” value (FACHpig1) was 1.36E-02 mSv/MBq. For the same compound, the “Organ equivalent dose HT, Brain” value (FACHpig1) was 5.61E-03 mSv/MBq, the “Organ equivalent dose HT, Esophagus” value (FACHpig1) was 1.04E-02 mSv/MBq and the “Organ equivalent dose HT, Eyes” value (FACHpig1) was 8.81E-03 mSv/MBq. The “Organ equivalent dose HT, Gallbladder Wall” value (FACHpig1) was 1.22E-02 mSv/MBq, the “Organ equivalent dose HT, Heart Wall” value (FACHpig1) was 1.03E-02 mSv/MBq and the “Organ equivalent dose HT, Kidneys” value (FACHpig1) was 2.67E-02 mSv/MBq. The “Organ equivalent dose HT, Left colon” value (FACHpig1) was 1.60E-02 mSv/MBq, the “Organ equivalent dose HT, Liver” value (FACHpig1) was 8.05E-03 mSv/MBq and the “Organ equivalent dose HT, Lungs” value (FACHpig1) was 8.05E-03 mSv/MBq. For the same compound, the “Organ equivalent dose HT, Osteogenic Cells” value (FACHpig1) was 2.00E-02 mSv/MBq, the “Organ equivalent dose HT, Pancreas” value (FACHpig1) was 6.08E-02 mSv/MBq and the “Organ equivalent dose HT, Prostate” value (FACHpig1) was 1.59E-02 mSv/MBq. The “Organ equivalent dose HT, Rectum” value (FACHpig1) was 1.50E-02 mSv/MBq, the “Organ equivalent dose HT, Red Marrow” value (FACHpig1) was 1.32E-02 mSv/MBq and the “Organ equivalent dose HT, Right colon” value (FACHpig1) was 1.93E-02 mSv/MBq. The “Organ equivalent dose HT, Salivary Glands” value (FACHpig1) was 1.03E-02 mSv/MBq, the “Organ equivalent dose HT, Small Intestine” value (FACHpig1) was 1.88E-02 mSv/MBq and the “Organ equivalent dose HT, Spleen” value (FACHpig1) was 1.03E-02 mSv/MBq. For the same compound, the “Organ equivalent dose HT, Stomach Wall” value (FACHpig1) was 1.43E-02 mSv/MBq, the “Organ equivalent dose HT, Testes” value (FACHpig1) was 1.10E-02 mSv/MBq and the “Organ equivalent dose HT, Thymus” value (FACHpig1) was 1.03E-02 mSv/MBq. The “Organ equivalent dose HT, Thyroid” value (FACHpig1) was 8.02E-03 mSv/MBq, the “Organ equivalent dose HT, Total Body” value (FACHpig1) was 1.15E-02 mSv/MBq and the “Organ equivalent dose HT, Urinary Bladder Wall” value (FACHpig1) was 6.86E-02 mSv/MBq. The Effective dose (FACHpig2) was 1.19E-02 mSv/MBq, the “Effective dose contribution HT wT, Adrenals” value (FACHpig2) was 1.33E-04 mSv/MBq and the “Effective dose contribution HT wT, Brain” value (FACHpig2) was 4.35E-05 mSv/MBq. The “Effective dose contribution HT wT, Esophagus” value (FACHpig2) was 3.43E-04 mSv/MBq, the “Effective dose contribution HT wT, Eyes” value (FACHpig2) was 0.00E+00 mSv/MBq and the “Effective dose contribution HT wT, Gallbladder Wall” value (FACHpig2) was 4.78E-04 mSv/MBq. The “Effective dose contribution HT wT, Heart Wall” value (FACHpig2) was 8.50E-05 mSv/MBq, the “Effective dose contribution HT wT, Kidneys” value (FACHpig2) was 2.20E-04 mSv/MBq and the “Effective dose contribution HT wT, Left colon” value (FACHpig2) was 7.07E-04 mSv/MBq. The “Effective dose contribution HT wT, Liver” value (FACHpig2) was 1.11E-03 mSv/MBq, the “Effective dose contribution HT wT, Lungs” value (FACHpig2) was 9.55E-04 mSv/MBq and the “Effective dose contribution HT wT, Osteogenic Cells” value (FACHpig2) was 2.34E-04 mSv/MBq. The “Effective dose contribution HT wT, Pancreas” value (FACHpig2) was 2.11E-04 mSv/MBq, the “Effective dose contribution HT wT, Prostate” value (FACHpig2) was 4.73E-05 mSv/MBq and the “Effective dose contribution HT wT, Rectum” value (FACHpig2) was 3.17E-04 mSv/MBq. For the same compound, the “Effective dose contribution HT wT, Red Marrow” value (FACHpig2) was 1.97E-03 mSv/MBq, the “Effective dose contribution HT wT, Right colon” value (FACHpig2) was 1.58E-03 mSv/MBq and the “Effective dose contribution HT wT, Salivary Glands” value (FACHpig2) was 7.07E-05 mSv/MBq. For the same compound, the “Effective dose contribution HT wT, Small Intestine” value (FACHpig2) was 2.47E-04 mSv/MBq, the “Effective dose contribution HT wT, Spleen” value (FACHpig2) was 8.20E-05 mSv/MBq and the “Effective dose contribution HT wT, Stomach Wall” value (FACHpig2) was 1.22E-03 mSv/MBq. The “Effective dose contribution HT wT, Testes” value (FACHpig2) was 2.83E-04 mSv/MBq, the “Effective dose contribution HT wT, Thymus” value (FACHpig2) was 7.07E-05 mSv/MBq and the “Effective dose contribution HT wT, Thyroid” value (FACHpig2) was 2.52E-04 mSv/MBq. For the same compound, the “Effective dose contribution HT wT, Total Body” value (FACHpig2) was 0.00E+00 mSv/MBq, the “Effective dose contribution HT wT, Urinary Bladder Wall” value (FACHpig2) was 1.25E-03 mSv/MBq and the “Organ equivalent dose HT, Adrenals” value (FACHpig2) was 1.44E-02 mSv/MBq. For the same compound, the “Organ equivalent dose HT, Brain” value (FACHpig2) was 4.35E-03 mSv/MBq, the “Organ equivalent dose HT, Esophagus” value (FACHpig2) was 8.58E-03 mSv/MBq and the “Organ equivalent dose HT, Eyes” value (FACHpig2) was 6.29E-03 mSv/MBq. For the same compound, the “Organ equivalent dose HT, Gallbladder Wall” value (FACHpig2) was 5.18E-02 mSv/MBq, the “Organ equivalent dose HT, Heart Wall” value (FACHpig2) was 9.21E-03 mSv/MBq and the “Organ equivalent dose HT, Kidneys” value (FACHpig2) was 2.38E-02 mSv/MBq. The “Organ equivalent dose HT, Left colon” value (FACHpig2) was 1.46E-02 mSv/MBq, the “Organ equivalent dose HT, Liver” value (FACHpig2) was 2.77E-02 mSv/MBq and the “Organ equivalent dose HT, Lungs” value (FACHpig2) was 7.96E-03 mSv/MBq. The “Organ equivalent dose HT, Osteogenic Cells” value (FACHpig2) was 2.34E-02 mSv/MBq, the “Organ equivalent dose HT, Pancreas” value (FACHpig2) was 2.28E-02 mSv/MBq and the “Organ equivalent dose HT, Prostate” value (FACHpig2) was 1.02E-02 mSv/MBq. The “Organ equivalent dose HT, Rectum” value (FACHpig2) was 1.38E-02 mSv/MBq, the “Organ equivalent dose HT, Red Marrow” value (FACHpig2) was 1.64E-02 mSv/MBq and the “Organ equivalent dose HT, Right colon” value (FACHpig2) was 3.25E-02 mSv/MBq. The “Organ equivalent dose HT, Salivary Glands” value (FACHpig2) was 7.07E-03 mSv/MBq, the “Organ equivalent dose HT, Small Intestine” value (FACHpig2) was 2.67E-02 mSv/MBq and the “Organ equivalent dose HT, Spleen” value (FACHpig2) was 8.88E-03 mSv/MBq. For the same compound, the “Organ equivalent dose HT, Stomach Wall” value (FACHpig2) was 1.01E-02 mSv/MBq, the “Organ equivalent dose HT, Testes” value (FACHpig2) was 7.08E-03 mSv/MBq and the “Organ equivalent dose HT, Thymus” value (FACHpig2) was 7.66E-03 mSv/MBq. For the same compound, the “Organ equivalent dose HT, Thyroid” value (FACHpig2) was 6.30E-03 mSv/MBq, the “Organ equivalent dose HT, Total Body” value (FACHpig2) was 9.14E-03 mSv/MBq and the “Organ equivalent dose HT, Urinary Bladder Wall” value (FACHpig2) was 3.12E-02 mSv/MBq. The Effective dose (FACHpig3) was 1.29E-02 mSv/MBq, the “Effective dose contribution HT wT, Adrenals” value (FACHpig3) was 1.35E-04 mSv/MBq and the “Effective dose contribution HT wT, Brain” value (FACHpig3) was 4.10E-05 mSv/MBq. The “Effective dose contribution HT wT, Esophagus” value (FACHpig3) was 3.24E-04 mSv/MBq, the “Effective dose contribution HT wT, Eyes” value (FACHpig3) was 0.00E+00 mSv/MBq and the “Effective dose contribution HT wT, Gallbladder Wall” value (FACHpig3) was 8.05E-04 mSv/MBq.
